Literature values in patent US20230248791A1, “METHODS FOR MANUFACTURING ANGELICA GIGAS NAKAI EXTRACT USING FERMENTATION BACTERIA” (Sooy-K Co., Ltd., priority 2022, published 2023).

Tests used:
[1] = test system: microphthalmia-associated transcription factors (MITFs); conditions: via PKA/CREB, p38/ERK MARK, PI3K/Akt/GSK-3β
cyclooxygenase-2 (COX-2) = target: T1, cyclooxygenase-2 (COX-2) (Homo sapiens, UniProt P35354)
T1 sequence (P35354 18-604): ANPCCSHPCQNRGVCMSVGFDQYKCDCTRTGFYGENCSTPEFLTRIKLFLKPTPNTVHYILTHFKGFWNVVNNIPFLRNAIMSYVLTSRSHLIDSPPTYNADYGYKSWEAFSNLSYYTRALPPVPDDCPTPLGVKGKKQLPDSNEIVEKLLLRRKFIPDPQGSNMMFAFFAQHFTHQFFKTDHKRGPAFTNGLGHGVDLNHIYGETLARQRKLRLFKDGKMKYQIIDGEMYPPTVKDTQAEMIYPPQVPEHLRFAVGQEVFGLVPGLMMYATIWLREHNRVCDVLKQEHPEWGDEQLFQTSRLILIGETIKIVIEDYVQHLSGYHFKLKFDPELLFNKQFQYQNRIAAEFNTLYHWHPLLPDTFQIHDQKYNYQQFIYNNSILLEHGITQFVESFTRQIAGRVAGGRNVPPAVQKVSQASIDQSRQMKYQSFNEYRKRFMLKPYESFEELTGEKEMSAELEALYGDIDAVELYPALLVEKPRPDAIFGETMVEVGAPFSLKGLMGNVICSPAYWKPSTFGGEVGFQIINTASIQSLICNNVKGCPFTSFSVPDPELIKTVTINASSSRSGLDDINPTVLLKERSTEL

[2] = test system: ex vivo 3D human skin model

CC(C)=CC(=O)OC1Cc2cc3ccc(=O)oc3cc2OC1(C)C (stereo not shown) [decursin, 3-methyl-2-butenoic acid 2,2-dimethyl-8-oxo-3,4-dihydro-2H,8H-pyrano[3,2-g]chromen-3-yl ester]
effect on MITFs, major transcription factor in melanin synthesis [1]: inhibit | UVA/UVB-induced skin damage and skin aging (human dermal fibroblast): inhibits UVA/UVB-induced skin damage and skin aging | effect on COX-2 (anti-inflammatory mechanism) (cyclooxygenase-2 (COX-2)): inhibiting cyclooxygenase-2 (COX-2) | melanin synthesis [2]: prevents melanin synthesis
